Here are results for 8 molecules from US20260055114A1, “IMIDAZO[1,2-B]PYRIDAZINE INHIBITORS OF CYCLIN-DEPENDENT KINASES” (H. LEE MOFFITT CANCER CENTER AND RESEARCH INSTITUTE, INC., priority 2022, published 2026).

The target of one assay is CDK12 (Homo sapiens, UniProt Q9NYV4). The experiment in a line: Inhibition of cyclin-dependent kinase 12 (% enzyme activity at 1 uM and IC50). The following applies: for remaining activity at 1 µM: 1 uM compound. The class given is biochemical.
A further assay deals with MDA-MB-231 cell line. The experiment in a line: Antiproliferative activity, MDA-MB-231 cell line (GI50). Type of assay: cell-based. The following applies: Homo sapiens.
A further assay deals with CCNK. The experiment in a line: CCNK degradation (DC50, Dmax). The class given is cell-based. As to conditions: for Dmax (%): CCNK degradation.

Broadly, the IC50 is the midpoint of a concentration-inhibition curve. High values mean a need for much substance, low ones inhibition by little substance. For orientation: remaining activity means the signal under treatment as a percentage of the control signal. The term GI50 denotes the concentration that inhibits growth by half. A low value points to greater sensitivity of the cells. Broadly, the DC50 is the concentration at which degradation of the target reaches its halfway point. Low values mean a more potent degrader, high ones a less potent degrader.

Sequence of CDK12 (Q9NYV4 whole entry): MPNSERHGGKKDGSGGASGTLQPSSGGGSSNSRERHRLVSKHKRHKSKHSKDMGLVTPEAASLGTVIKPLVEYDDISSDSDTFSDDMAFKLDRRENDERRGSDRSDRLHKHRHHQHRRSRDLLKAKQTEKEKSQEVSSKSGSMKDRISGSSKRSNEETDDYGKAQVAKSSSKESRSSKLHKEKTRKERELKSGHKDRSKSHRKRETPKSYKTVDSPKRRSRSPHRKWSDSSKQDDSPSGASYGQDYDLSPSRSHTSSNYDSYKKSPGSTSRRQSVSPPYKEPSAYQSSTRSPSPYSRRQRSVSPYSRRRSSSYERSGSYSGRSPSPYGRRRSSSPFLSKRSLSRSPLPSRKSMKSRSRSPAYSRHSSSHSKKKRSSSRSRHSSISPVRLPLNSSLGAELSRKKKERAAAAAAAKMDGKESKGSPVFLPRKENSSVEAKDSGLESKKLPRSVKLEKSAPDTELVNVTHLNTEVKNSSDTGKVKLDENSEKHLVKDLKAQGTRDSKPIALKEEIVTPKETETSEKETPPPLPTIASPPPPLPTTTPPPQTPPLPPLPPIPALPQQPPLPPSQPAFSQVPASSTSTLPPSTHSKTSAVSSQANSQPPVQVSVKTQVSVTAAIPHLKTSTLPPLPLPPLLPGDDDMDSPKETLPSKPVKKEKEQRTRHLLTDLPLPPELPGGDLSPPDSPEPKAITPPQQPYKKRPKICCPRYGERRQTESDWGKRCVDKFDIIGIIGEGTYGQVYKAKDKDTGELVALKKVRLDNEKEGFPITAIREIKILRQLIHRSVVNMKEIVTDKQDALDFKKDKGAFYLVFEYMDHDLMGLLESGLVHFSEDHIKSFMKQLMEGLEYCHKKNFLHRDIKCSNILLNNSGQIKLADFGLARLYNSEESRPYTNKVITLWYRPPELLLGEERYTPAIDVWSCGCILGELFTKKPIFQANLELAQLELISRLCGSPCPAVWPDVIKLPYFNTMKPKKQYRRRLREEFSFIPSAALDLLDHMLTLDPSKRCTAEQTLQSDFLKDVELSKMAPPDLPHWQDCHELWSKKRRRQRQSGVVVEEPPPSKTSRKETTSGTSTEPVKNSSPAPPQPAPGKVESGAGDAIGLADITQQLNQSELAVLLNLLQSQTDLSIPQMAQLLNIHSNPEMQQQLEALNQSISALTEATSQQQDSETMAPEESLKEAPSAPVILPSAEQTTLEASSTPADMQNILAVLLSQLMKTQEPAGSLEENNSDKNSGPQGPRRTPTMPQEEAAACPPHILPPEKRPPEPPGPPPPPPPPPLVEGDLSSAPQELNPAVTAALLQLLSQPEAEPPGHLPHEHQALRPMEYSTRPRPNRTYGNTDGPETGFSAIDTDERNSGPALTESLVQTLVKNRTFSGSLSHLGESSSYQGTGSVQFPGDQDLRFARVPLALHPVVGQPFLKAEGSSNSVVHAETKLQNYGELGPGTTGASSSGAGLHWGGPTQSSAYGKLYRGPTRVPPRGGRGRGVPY
Sequence of CDK12 (O75909 whole entry partner): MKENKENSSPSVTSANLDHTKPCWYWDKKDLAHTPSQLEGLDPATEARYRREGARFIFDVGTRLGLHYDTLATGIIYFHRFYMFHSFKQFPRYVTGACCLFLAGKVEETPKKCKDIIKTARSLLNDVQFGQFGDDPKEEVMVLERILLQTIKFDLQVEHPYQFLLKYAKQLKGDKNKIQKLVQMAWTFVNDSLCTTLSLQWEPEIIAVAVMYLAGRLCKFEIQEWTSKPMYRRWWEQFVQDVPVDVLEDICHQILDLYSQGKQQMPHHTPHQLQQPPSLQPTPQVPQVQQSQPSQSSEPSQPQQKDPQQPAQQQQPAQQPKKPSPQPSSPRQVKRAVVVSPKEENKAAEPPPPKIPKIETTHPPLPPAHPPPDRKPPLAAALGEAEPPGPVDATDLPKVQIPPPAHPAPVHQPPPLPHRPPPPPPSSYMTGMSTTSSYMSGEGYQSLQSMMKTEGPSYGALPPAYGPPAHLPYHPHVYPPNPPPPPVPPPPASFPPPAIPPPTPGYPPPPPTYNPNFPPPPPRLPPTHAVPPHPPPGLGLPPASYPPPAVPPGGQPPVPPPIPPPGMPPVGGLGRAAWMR

As for `CN1CCN(c2cc(NCc3nc4c(F)c(F)ccc4[nH]3)c3ncc(-c4csc(C#N)c4)n3n2)CC1` [Cmpd 82, 4-(8-(((4,5-difluoro-1H-benzo[d]imidazol-2-yl)methyl)amino)-6-(4-methylpiperazin-1-yl)imidazo[1,2-b]pyridazin-3-yl)thiophene-2-carbonitrile], on CDK12, half-maximal inhibition (IC50) was put at 405 nM and the remaining activity at 1 µM is 30%. Further, the GI50 with MDA-MB-231 cell line came to 1120 nM. In addition, in the assay with CCNK, the DC50 is 250 nM and the “Dmax (%)” value is recorded as 50%.
For the molecule `Cc1cc(-c2cnc3c(NCc4nc5cccc(Cl)c5[nH]4)cc(N4CCN(C)CC4)nn23)cs1` [Cmpd 84, N-((7-chloro-1H-benzo[d]imidazol-2-yl)methyl)-6-(4-methylpipcrazin-1-yl)-3-(5-methylthiophen-3-yl) imidazo[1,2-b]pyridazin-8-amine], the remaining activity at 1 µM on CDK12 was 61%. Also, the GI50 in the assay on MDA-MB-231 cell line was 2210 nM. In addition, in the assay on CCNK, the DC50 was 1500 nM and the “Dmax (%)” value stood at 80%.
With `Cc1cc(-c2cnc3c(NCc4nc5cccc(Cl)c5[nH]4)cc(N4CCOCC4)nn23)cs1` [Cmpd 85, N-((7-chloro-1H-benzo[d]imidazol-2-yl)methyl)-3-(5-methylthiophen-3-yl)-6-morpholinoimidazo[1,2-b]pyridazin-8-amine], the remaining activity at 1 µM at CDK12 was 73%. Also, it took 3910 nM to inhibit growth in the assay with MDA-MB-231 cell line by half (GI50). In the assay with CCNK, the DC50 was determined as 1200 nM and the “Dmax (%)” value is 85%.
With `Cc1cc(-c2cnc3c(NCc4nc5cc(Cl)c(Cl)cc5[nH]4)cc(N4CCN(C)CC4)nn23)cs1` [Cmpd 87, N-((5,6-dichloro-1H-benzo[d]imidazol-2-yl)methyl)-6-(4-methylpiperazin-1-yl)-3-(5-methylthiophen-3-yl) imidazo[1,2-b]pyridazin-8-amine], the remaining activity at 1 µM at CDK12 stood at 82%. In the assay with MDA-MB-231 cell line, this molecule showed a GI50 of 7360 nM. This molecule also registered a DC50 in the assay with CCNK of 10000 nM.
On to `Cc1cc(-c2cnc3c(NCc4nc5cc(Cl)c(Cl)cc5[nH]4)cc(N4CCOCC4)nn23)cs1` [Cmpd 88, N-((5,6-dichloro-1H-benzo[d]imidazol-2-yl)methyl)-3-(5-methylthiophen-3-yl)-6-morpholinoimidazo[1,2-b]pyridazin-8-amine], for which the remaining activity at 1 µM at CDK12 turned out to be 82%. The molecule also showed a GI50 in the assay on MDA-MB-231 cell line of 460 nM. Further, in the assay on CCNK, half-maximal degradation (DC50) was put at 1800 nM and the “Dmax (%)” value stood at 100%.
For `Cc1cc(-c2cnc3c(NCc4nc5c(C)ccnc5[nH]4)cc(N4CCN(C)CC4)nn23)cs1` [Cmpd 90, N-((7-methyl-3H-imidazo[4,5-b]pyridin-2-yl)methyl)-6-(4-methylpiperazin-1-yl)-3-(5-methylthiophen-3-yl) imidazo[1,2-b]pyridazin-8-amine], on CDK12, the IC50 is 1410 nM and the remaining activity at 1 µM was 36%. The molecule further displayed a GI50 in the assay on MDA-MB-231 cell line of 4160 nM. Moreover, the DC50 in the assay with CCNK is 10000 nM.
Consider `Cc1cc(-c2cnc3c(NCc4nc5c(C)ccnc5[nH]4)cc(N4CCOCC4)nn23)cs1` [Cmpd 91, N-((7-methyl-3H-imidazo[4,5-b]pyridin-2-yl)methyl)-3-(5-methylthiophen-3-yl)-6-morpholinoimidazo[1,2-b]pyridazin-8-amine], for which the remaining activity at 1 µM on CDK12 came out at 103%. The molecule further yielded a GI50 in the assay with MDA-MB-231 cell line of 3940 nM. The molecule also came in with a DC50 in the assay on CCNK of 10000 nM.
On to `Cc1cc(-c2cnc3c(NCc4nc5c(F)cccc5[nH]4)cc(N4CCN(C)CC4)nn23)cs1` [Cmpd 93, N-((4-fluoro-1H-benzo[d]imidazol-2-yl)methyl)-6-(4-methylpiperazin-1-yl)-3-(5-methylthiophen-3-yl) imidazo[1,2-b]pyridazin-8-amine], for which, on CDK12, half-maximal inhibition (IC50) required 1220 nM and the remaining activity at 1 µM amounted to 36%. This molecule also returned a 50% growth inhibitory concentration (GI50) in the assay on MDA-MB-231 cell line of 1250 nM. In addition, in the assay with CCNK, the DC50 is 80 nM and the “Dmax (%)” value was 80%.
